Assay results: patent US20130231262A1, “ENGINEERED PROTEIN: "2-COLOR SERCA", AN ION-MOTIVE ATPase FUSED TO CERULEAN AND YELLOW FLUORESCENT PROTEIN” (LOYOLA UNIVERSITY CHICAGO, priority 2012, published 2013)

Legend:
[1] = molecular target: T1, 2-color SERCA (construct 509) (Canis lupus familiaris, UniProt O46674); test: Tg titration of 2-color SERCA FRET change in AAV-293 cells; format: cell-based, canine
T1 construct: other: Tg-dependent FRET change of construct 509; mCerulean (Cer) was fused to the N-terminus of canine SERCA2a; fused on or other part: mCerulean at the N-terminus
T1 sequence (O46674 whole entry, the tested form may be a part): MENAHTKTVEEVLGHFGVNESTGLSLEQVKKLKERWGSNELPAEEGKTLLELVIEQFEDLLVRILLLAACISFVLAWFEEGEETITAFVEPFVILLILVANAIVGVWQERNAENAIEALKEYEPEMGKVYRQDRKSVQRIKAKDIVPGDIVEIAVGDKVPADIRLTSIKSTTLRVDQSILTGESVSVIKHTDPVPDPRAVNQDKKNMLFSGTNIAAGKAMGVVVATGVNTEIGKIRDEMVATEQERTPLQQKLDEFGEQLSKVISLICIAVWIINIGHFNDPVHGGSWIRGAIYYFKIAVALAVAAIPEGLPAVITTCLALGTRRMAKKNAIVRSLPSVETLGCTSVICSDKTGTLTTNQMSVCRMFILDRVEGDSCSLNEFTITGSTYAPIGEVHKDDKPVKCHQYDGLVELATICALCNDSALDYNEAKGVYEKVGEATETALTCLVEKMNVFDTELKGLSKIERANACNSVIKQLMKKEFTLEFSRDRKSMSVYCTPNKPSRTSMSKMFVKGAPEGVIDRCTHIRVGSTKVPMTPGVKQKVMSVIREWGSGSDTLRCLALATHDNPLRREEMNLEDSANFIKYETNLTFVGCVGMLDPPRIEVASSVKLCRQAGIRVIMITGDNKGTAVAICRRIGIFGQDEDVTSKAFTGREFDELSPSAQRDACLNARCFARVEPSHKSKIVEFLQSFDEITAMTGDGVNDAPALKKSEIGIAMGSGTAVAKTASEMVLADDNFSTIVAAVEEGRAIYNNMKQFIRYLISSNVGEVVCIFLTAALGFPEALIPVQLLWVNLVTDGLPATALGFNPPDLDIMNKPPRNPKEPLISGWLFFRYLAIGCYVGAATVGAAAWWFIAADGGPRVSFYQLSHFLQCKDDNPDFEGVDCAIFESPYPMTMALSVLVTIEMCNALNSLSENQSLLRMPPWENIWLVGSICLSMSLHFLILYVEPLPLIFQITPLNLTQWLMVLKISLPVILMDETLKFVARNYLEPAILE
Procedure: One consequence of the slow FRET response at low concentrations of Tg is that the apparent EC50 decreased over time. This is evident in FIG. 8B as a left shift in the binding curve with time. This change is quantified in FIG. 8C. The apparent upper limit estimate of EC50 (obtained from the final EC50 value) was approximately 100 nM, which is compatible with the subnanomolar affinity of the Tg-SERCA complex.

[2] = tested on: 2-color SERCA (construct 509); settings: cited from earlier work

SMILES: C/C=C(/C)C(=O)O[C@H]1C(C)=C2[C@H]([C@@H]1OC(=O)CCCCCCC)[C@@](C)(OC(C)=O)C[C@H](OC(=O)CCC)[C@@]1(O)[C@H]2OC(=O)[C@@]1(C)O [Tg, thapsigargin]
- EC50 [1]: ~100 nM
- affinity of the Tg-SERCA complex [2]: subnanomolar
